Experimental data as given in US20240409585A1, “MACROCYCLIC IMMUNOMODULATORS” (priority 2021, published 2024).
Bridge positions count the residues as written; N and C are the ends. Square brackets hold non-standard residues; d marks the D form. Peptide text beside a SMILES is read from it. * marks the point of attachment. ξ: configuration not given here. Ala(morpholin-4-yl) = N[C@@H](CN1CCOCC1)C(=O)O; Phe(4-COOH) = N[C@@H](Cc1ccc(C(=O)O)cc1)C(=O)O; Bip = N[C@@H](Cc1ccc(-c2ccccc2)cc1)C(=O)O; Phe(3-F) = N[C@@H](Cc1cccc(F)c1)C(=O)O; Phe(3-Me) = Cc1cccc(C[C@H](N)C(=O)O)c1; Phe(2-Me) = Cc1ccccc1C[C@H](N)C(=O)O; Bta = N[C@@H](Cc1csc2ccccc12)C(=O)O; Val(3-OH) = CC(C)(O)[C@H](N)C(=O)O; 3Pal = N[C@@H](Cc1cccnc1)C(=O)O; 4Pal = N[C@@H](Cc1ccncc1)C(=O)O; Cha = N[C@@H](CC1CCCCC1)C(=O)O; Cit = NC(=O)NCCC[C@H](N)C(=O)O; Thr(3ξ) = CC(O)[C@H](N)C(=O)O; NMeNle = CCCC[C@H](NC)C(=O)O; Pip = O=C(O)[C@@H]1CCCCN1; Carboxymethyl = O=C(O)C*; NMeA = CN[C@@H](C)C(=O)O; Nle = CCCC[C@H](N)C(=O)O; Orn = NCCC[C@H](N)C(=O)O; Pra = C#CC[C@H](N)C(=O)O; Dab = NCC[C@H](N)C(=O)O; Dap = NC[C@H](N)C(=O)O; ξDab = NCCC(N)C(=O)O

Molecular target: T1, PE-labeled human PD-L1-Ig binding to Jurkat cell line over-expressing human PD-1 (Jurkat-PD-1) (Homo sapiens, UniProt Q15116)
T1 construct: expressed in transfected cells; host or cells: Jurkat
T1 sequence (Q15116 25-288): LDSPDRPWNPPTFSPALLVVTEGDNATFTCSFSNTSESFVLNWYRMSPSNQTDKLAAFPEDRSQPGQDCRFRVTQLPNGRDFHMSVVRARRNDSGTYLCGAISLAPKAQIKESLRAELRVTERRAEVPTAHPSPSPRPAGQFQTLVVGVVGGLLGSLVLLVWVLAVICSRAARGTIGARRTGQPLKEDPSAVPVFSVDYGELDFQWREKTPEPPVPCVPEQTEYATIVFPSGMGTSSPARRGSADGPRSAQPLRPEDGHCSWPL
Assay: Jurkat-PD-1 Cell Binding High-Content Screening Assay (CBA): Method 1
Details: Jurkat-hPD-1 cells, PE-labeled PD-L1-Ig 20 nM final; read-out: Jurkat HPDL1 PD1 IC50 (uM) (Method 1)

Structure (SMILES) | IC50
Cc1cccc(C[C@@H]2NC(=O)[C@H](CC(=O)O)NC(=O)[C@H](Cc3ccc(OCC(=O)O)cc3)NC(=O)[C@H](CN)NC(=O)CSC[C@@H](C(N)=O)NC(=O)[C@H](CCC(N)=O)NC(=O)[C@H](C(C)C)NC(=O)[C@H](CC3CCCCC3)NC(=O)[C@H](CCN)NC(=O)[C@@H](CC(C)C)NC(=O)[C@@H]3CCCCN3C(=O)[C@H](Cc3ccc(OCC(=O)O)cc3)NC(=O)[C@H](Cc3ccc(-c4ccccc4)cc3)NC(=O)[C@H](Cc3ccc(OCC(=O)O)cc3)NC2=O)c1 [Compound 1896] ({CH2CO}-[Dap]Y(Carboxymethyl)D[Phe(3-Me)]Y(Carboxymethyl)[Bip]Y(Carboxymethyl)[Pip][dL][Dab][Cha]VQC-NH2; thioether N-14) | 0.19 µM
CC(C)C[C@H]1NC(=O)[C@H](C)N(C)C(=O)[C@H](CCCNC(N)=O)NC(=O)[C@H](Cc2ccc(-c3ccccc3)cc2)NC(=O)[C@H](C(C)C)NC(=O)[C@H](Cc2c[nH]c3ccccc23)NC(=O)[C@H](CC(=O)O)NC(=O)[C@H](Cc2ccc(OCC(=O)O)cc2)NC(=O)[C@H](Cc2ccccc2)NC(=O)CSC[C@@H](C(=O)N[C@@H](C)C(N)=O)NC(=O)[C@H](CO)NC(=O)[C@H](C(C)C)NC(=O)[C@H](CC2CCCCC2)NC(=O)[C@H](CC(N)=O)NC1=O [Compound 2022] ({CH2CO}-FY(Carboxymethyl)DWV[Bip][Cit][NMeA][dL]N[Cha]VSCA-NH2; thioether N-14) | 0.01 µM
CCCC[C@H]1C(=O)N[C@H](CC(C)C)C(=O)N[C@@H](CCN)C(=O)N[C@@H](CC(C)C)C(=O)N[C@@H](C(C)C)C(=O)N[C@@H]([C@@H](C)O)C(=O)N[C@H](C(=O)N[C@@H](C)C(N)=O)CSCC(=O)N[C@@H](CC(N)=O)C(=O)N[C@@H](Cc2ccc(O)cc2)C(=O)N[C@@H](CC(=O)O)C(=O)N[C@@H](Cc2c[nH]c3ccccc23)C(=O)N[C@@H](C(C)C)C(=O)N[C@@H](Cc2ccc(-c3ccccc3)cc2)C(=O)N[C@@H](C(C)C)C(=O)N1C [Compound 1365] ({CH2CO}-NYDWV[Bip]V[NMeNle][dL][Dab]LVTCA-NH2; thioether N-14) | 0.01 µM
CCNC(=O)[C@H](CCN)NC(=O)[C@@H]1CSCC(=O)N[C@@H](Cc2ccncc2)C(=O)N[C@@H](Cc2ccc(OCC(=O)O)cc2)C(=O)N[C@@H](CC(=O)O)C(=O)N[C@@H](Cc2cccc(C)c2)C(=O)N[C@@H](Cc2cccc(F)c2)C(=O)N[C@@H](Cc2ccc(-c3ccccc3)cc2)C(=O)N[C@@H](C(C)C)C(=O)N(C)[C@@H](C)C(=O)N[C@H](CC(C)C)C(=O)N[C@@H](CCN)C(=O)N[C@@H](CC2CCCCC2)C(=O)N[C@@H](C(C)(C)O)C(=O)N[C@@H](CO)C(=O)N1 [Compound 1838] ({CH2CO}-[4Pal]Y(Carboxymethyl)D[Phe(3-Me)][Phe(3-F)][Bip]V[NMeA][dL][Dab][Cha][Val(3-OH)]SC[Dab]-NHEt; thioether N-14) | 0.01 µM
Cc1ccccc1C[C@@H]1NC(=O)[C@H](Cc2ccccc2)NC(=O)CSC[C@@H](C(=O)N[C@@H](C)C(N)=O)NC(=O)[C@H](CO)NC(=O)[C@H](C(C)C)NC(=O)[C@H](CC(C)C)NC(=O)[C@H](CC(N)=O)NC(=O)[C@@H](C)NC(=O)[C@H](C)N(C)C(=O)[C@H](C(C)C)NC(=O)[C@H](Cc2ccc(-c3ccccc3)cc2)NC(=O)[C@H](CC(C)C)NC(=O)[C@H](Cc2c[nH]c3ccccc23)NC(=O)[C@H](CC(=O)O)NC1=O [Compound 1794] ({CH2CO}-F[Phe(2-Me)]DWL[Bip]V[NMeA][dA]NLVSCA-NH2; thioether N-14) | 0.15 µM
C#CC[C@H](NC(=O)[C@@H](C)NC(=O)[C@@H]1CSCC(=O)N[C@@H]([C@@H](C)O)C(=O)N[C@@H](Cc2ccc(OCC(=O)O)cc2)C(=O)N[C@@H](CC(=O)O)C(=O)N[C@@H](Cc2cccc(C)c2)C(=O)N[C@@H](Cc2ccc(OCC(=O)O)cc2)C(=O)N[C@@H](Cc2ccc(-c3ccccc3)cc2)C(=O)N[C@@H](Cc2ccc(OCC(=O)O)cc2)C(=O)N(C)[C@@H](C)C(=O)N[C@H](CC(C)C)C(=O)N[C@@H](CCN)C(=O)N[C@@H](CC2CCCCC2)C(=O)N[C@@H](C(C)(C)O)C(=O)N[C@@H](CCC(=O)O)C(=O)N1)C(N)=O [Compound 1945] ({CH2CO}-TY(Carboxymethyl)D[Phe(3-Me)]Y(Carboxymethyl)[Bip]Y(Carboxymethyl)[NMeA][dL][Dab][Cha][Val(3-OH)]EC[dA][Pra]-NH2; thioether N-14) | 0.93 µM
Cc1cccc(C[C@@H]2NC(=O)[C@H](CC(=O)O)NC(=O)[C@H](Cc3ccc(OCC(=O)O)cc3)NC(=O)[C@H](CN3CCOCC3)NC(=O)CSC[C@@H](C(=O)NC(CCN)C(N)=O)NC(=O)[C@H](CCCN)NC(=O)[C@H](C(C)C)NC(=O)[C@H](Cc3ccc(O)cc3)NC(=O)[C@H](CCN)NC(=O)[C@@H](CC(C)C)NC(=O)[C@H](C)N(C)C(=O)[C@H](CCC(N)=O)NC(=O)[C@H](Cc3ccc(-c4ccccc4)cc3)NC(=O)[C@H](Cc3ccc(C(=O)O)cc3)NC2=O)c1 (stereo partly drawn) [Example 2301] ({CH2CO}-[Ala(morpholin-4-yl)]Y(Carboxymethyl)D[Phe(3-Me)][Phe(4-COOH)][Bip]Q[NMeA][dL][Dab]YV[Orn]C[ξDab]-NH2; thioether N-14) | 0.98 µM
CC(C)C[C@@H]1NC(=O)[C@H](CCCN)NC(=O)[C@H](Cc2csc3ccccc23)NC(=O)[C@H](C)N(C)C(=O)[C@H](CCCNC(=N)N)NC(=O)[C@H](Cc2ccc(-c3ccccc3)cc2)NC(=O)[C@H](C(C)C)NC(=O)[C@H](Cc2c[nH]c3ccccc23)NC(=O)[C@H](CC(=O)O)NC(=O)[C@H](Cc2ccc(O)cc2)NC(=O)[C@H](Cc2ccccc2)NC(=O)CSC[C@@H](C(=O)N[C@@H](C)C(N)=O)NC(=O)[C@H]([C@@H](C)O)NC(=O)[C@H](C(C)C)NC1=O [Compound 1120] ({CH2CO}-FYDWV[Bip]R[NMeA][Bta][Orn]LVTCA-NH2; thioether N-14) | 0.27 µM
CC(C)C[C@@H]1NC(=O)[C@H](CCN)NC(=O)[C@@H](CC(C)C)NC(=O)[C@H](C)N(C)C(=O)[C@H](CCC(=O)O)NC(=O)[C@H](Cc2ccc(-c3ccccc3)cc2)NC(=O)[C@H](C(C)C)NC(=O)[C@H](Cc2c[nH]c3ccccc23)NC(=O)[C@H](CC(N)=O)NC(=O)[C@H](Cc2ccc(O)cc2)NC(=O)[C@H](Cc2ccncc2)NC(=O)CSC[C@@H](C(=O)N[C@@H](C)C(N)=O)NC(=O)[C@H](C(C)O)NC(=O)[C@H](C(C)C)NC1=O (stereo partly drawn) [Compound 2056] ({CH2CO}-[4Pal]YNWV[Bip]E[NMeA][dL][Dab]LV[Thr(3ξ)]CA-NH2; thioether N-14) | 0.04 µM
CC(C)C[C@@H]1NC(=O)[C@H](CCN)NC(=O)[C@@H](CC(C)C)NC(=O)[C@H](C)N(C)C(=O)[C@H](CCCNC(N)=O)NC(=O)[C@H](Cc2ccc(-c3ccccc3)cc2)NC(=O)[C@H](C(C)C)NC(=O)[C@H](Cc2c[nH]c3ccccc23)NC(=O)[C@H](CC(=O)O)NC(=O)[C@H](Cc2ccc(C(=O)O)cc2)NC(=O)[C@H](Cc2ccc(OCC(=O)O)cc2)NC(=O)CSC[C@@H](C(=O)N[C@@H](C)C(N)=O)NC(=O)[C@H]([C@@H](C)O)NC(=O)[C@H](C(C)C)NC1=O [Compound 1573] ({CH2CO}-Y(Carboxymethyl)[Phe(4-COOH)]DWV[Bip][Cit][NMeA][dL][Dab]LVTCA-NH2; thioether N-14) | 0.05 µM
CC(C)C[C@@H]1NC(=O)[C@H](CCCN)NC(=O)[C@@H](CC(C)C)NC(=O)[C@H](C)N(C)C(=O)[C@H](CCCNC(N)=O)NC(=O)[C@H](Cc2ccc(-c3ccccc3)cc2)NC(=O)[C@H](C(C)C)NC(=O)[C@H](Cc2c[nH]c3ccccc23)NC(=O)[C@H](CC(=O)O)NC(=O)[C@H](Cc2ccc(O)cc2)NC(=O)[C@H](CC(N)=O)NC(=O)CSC[C@@H](C(=O)NCC(N)=O)NC(=O)[C@H]([C@@H](C)O)NC(=O)[C@H](C(C)C)NC1=O [Compound 1235] ({CH2CO}-NYDWV[Bip][Cit][NMeA][dL][Orn]LVTCG-NH2; thioether N-14) | 0.06 µM
CC(C)C[C@@H]1NC(=O)[C@H](CCCNC(=N)N)NC(=O)[C@H](Cc2csc3ccccc23)NC(=O)[C@H](C)N(C)C(=O)[C@H](CCCNC(=N)N)NC(=O)[C@H](Cc2ccc(-c3ccccc3)cc2)NC(=O)[C@H](C(C)C)NC(=O)[C@H](Cc2c[nH]c3ccccc23)NC(=O)[C@H](CC(=O)O)NC(=O)[C@H](Cc2ccc(O)cc2)NC(=O)[C@H](Cc2cnc[nH]2)NC(=O)CSC[C@@H](C(=O)NCC(N)=O)NC(=O)[C@H](CO)NC(=O)[C@H](C(C)C)NC1=O [Compound 1025] ({CH2CO}-HYDWV[Bip]R[NMeA][Bta]RLVSCG-NH2; thioether N-14) | 0.12 µM
CC(C)C[C@@H]1NC(=O)[C@H](Cc2c[nH]c3ccccc23)NC(=O)[C@H](CC(=O)O)NC(=O)[C@H](Cc2ccc(C(=O)O)cc2)NC(=O)[C@H](Cc2cccnc2)NC(=O)CSC[C@@H](C(=O)N[C@@H](C)C(N)=O)NC(=O)[C@H](CO)NC(=O)[C@H](C(C)C)NC(=O)[C@H](CC(C)C)NC(=O)[C@H](CC(N)=O)NC(=O)[C@@H](C)NC(=O)[C@H](C)N(C)C(=O)[C@H](C(C)C)NC(=O)[C@H](Cc2ccc(-c3ccccc3)cc2)NC1=O [Compound 1747] ({CH2CO}-[3Pal][Phe(4-COOH)]DWL[Bip]V[NMeA][dA]NLVSCA-NH2; thioether N-14) | 0.02 µM
CC(C)C[C@@H]1NC(=O)[C@H](Cc2c[nH]c3ccccc23)NC(=O)[C@H](CC(=O)O)NC(=O)[C@H](Cc2ccc(O)cc2)NC(=O)[C@H](Cc2ccccc2)NC(=O)CSC[C@@H](C(=O)N[C@@H](C)C(N)=O)NC(=O)[C@H](CO)NC(=O)[C@H](C(C)C)NC(=O)[C@H](CC(C)C)NC(=O)[C@H](CC(N)=O)NC(=O)[C@@H](C)NC(=O)[C@H](C)N(C)C(=O)[C@H](CCC(=O)O)NC(=O)[C@H](Cc2ccc(-c3ccccc3)cc2)NC1=O [Compound 1768] ({CH2CO}-FYDWL[Bip]E[NMeA][dA]NLVSCA-NH2; thioether N-14) | 0.04 µM
CCCC[C@@H]1NC(=O)CSC[C@@H](C(=O)NCC(N)=O)NC(=O)[C@H](CO)NC(=O)[C@H](C(C)C)NC(=O)[C@H](CC(C)C)NC(=O)[C@H](CC(=O)O)NC(=O)[C@H](CC(N)=O)NC(=O)[C@H](C)N(C)C(=O)[C@H](C(C)C)NC(=O)[C@H](Cc2ccc(-c3ccccc3)cc2)NC(=O)[C@H](CC(C)C)NC(=O)[C@H](Cc2c[nH]c3ccccc23)NC(=O)[C@H](CC(=O)O)NC(=O)[C@H](Cc2ccc(O)cc2)NC1=O [Compound 1828] ({CH2CO}-[Nle]YDWL[Bip]V[NMeA]NDLVSCG-NH2; thioether N-14) | 0.82 µM
